Experimental data reported in US10144947B2, “Method for detecting, identifying and enumerating micro-organisms in a porous support dry-impregnated with a dehydrated reaction medium” (BIOMÉRIEUX, priority 2014, dated 2018).
Where two headings read alike, the source gives them in different places.

Columns and labels:
[1] = tested on: Proteus mirabilis API 8803099; test: MIC of ciprofloxacin for the strain tested; format: cell-based
[2] = tested on: Proteus mirabilis API 8803080; test: MIC of ciprofloxacin for the strain tested; format: cell-based; settings: listed as Ci
[3] = tested on: Proteus mirabilis API 9406037; test: MIC of ciprofloxacin for the strain tested; format: cell-based; settings: listed as Ci
[4] = tested on: Proteus vulgaris API 8803017; test: MIC of ciprofloxacin for the strain tested; format: cell-based; settings: API8803017
[5] = tested on: Pseudomonas aeruginosa API 9405061; test: MIC of ciprofloxacin for the strain tested; format: cell-based; settings: P. aeruginosa API 9405061
[6] = tested on: Pseudomonas aeruginosa API 7509005; test: MIC of ciprofloxacin for the strain tested; format: cell-based; settings: P. aeruginosa API 7509005; listed as Ci
[7] = tested on: Pseudomonas aeruginosa API 9410075; test: MIC of ciprofloxacin for the strain tested; format: cell-based; settings: P. aeruginosa API 9410075; listed as Ci
[8] = tested on: Pseudomonas aeruginosa API 9405063; test: MIC of ciprofloxacin for the strain tested; format: cell-based; settings: P. aeruginosa API 9405063; listed as Ci
[9] = tested on: Proteus mirabilis API 8803080; test: Growth on MH2 or ChromID CPS3 with 1.5 mg/l ciprofloxacin, agar medium or impregnated porous support; format: cell-based; set-up: key to growth on MH2 Agar medium + 1.5 mg/l Ci / growth on Impregnation of porous support with MH2 + 1.5 mg/l Ci / growth on ChromID CPS3 Agar medium + 1.5 mg/l Ci / growth on Impregnation of porous support with ChromID CPS3 + 1.5 mg/l Ci: ++: grow; −−: do not grow
Procedure: (§1) To produce the agar media, a liter of water is added to the test specimen of the dry medium, i.e. 38.3 g for ChromID CPS3 and 41.57 g for the Muller Hinton 2 medium. The dry medium is then dissolved with magnetic stirring, brought to the boil then sterilized by autoclaving. […]. The whole thing is then mixed together in a Turbula®. The porous supports are then impregnated with the culture media powders as described above and sterilized by gamma radiation between 10 and 17 kGy.

[10] = tested on: Proteus mirabilis API 8803099; test: as above; format: cell-based; set-up: key to growth on MH2 Agar medium + 1.5 mg/l Ci / growth on Impregnation of porous support with MH2 + 1.5 mg/l Ci / growth on ChromID CPS3 Agar medium + 1.5 mg/l Ci / growth on Impregnation of porous support with ChromID CPS3 + 1.5 mg/l Ci: ++: grow; −−: do not grow
Procedure: as §1

[11] = tested on: Proteus mirabilis API 9406037; test: as above; format: cell-based; set-up: key to growth on MH2 Agar medium + 1.5 mg/l Ci / growth on Impregnation of porous support with MH2 + 1.5 mg/l Ci / growth on ChromID CPS3 Agar medium + 1.5 mg/l Ci / growth on Impregnation of porous support with ChromID CPS3 + 1.5 mg/l Ci: ++: grow; −−: do not grow
Procedure: as §1

[12] = tested on: Proteus vulgaris API 8803017; test: as above; format: cell-based; set-up: key to growth on MH2 Agar medium + 1.5 mg/l Ci / growth on Impregnation of porous support with MH2 + 1.5 mg/l Ci / growth on ChromID CPS3 Agar medium + 1.5 mg/l Ci / growth on Impregnation of porous support with ChromID CPS3 + 1.5 mg/l Ci: ++: grow; −−: do not grow
Procedure: as §1

[13] = tested on: Pseudomonas aeruginosa API 7509005; test: as above; format: cell-based; set-up: key to growth on MH2 Agar medium + 1.5 mg/l Ci / growth on Impregnation of porous support with MH2 + 1.5 mg/l Ci / growth on ChromID CPS3 Agar medium + 1.5 mg/l Ci / growth on Impregnation of porous support with ChromID CPS3 + 1.5 mg/l Ci: ++: grow; −−: do not grow
Procedure: as §1

[14] = tested on: Pseudomonas aeruginosa API 9405061; test: as above; format: cell-based; set-up: key to growth on MH2 Agar medium + 1.5 mg/l Ci / growth on Impregnation of porous support with MH2 + 1.5 mg/l Ci / growth on ChromID CPS3 Agar medium + 1.5 mg/l Ci / growth on Impregnation of porous support with ChromID CPS3 + 1.5 mg/l Ci: ++: grow; −−: do not grow
Procedure: as §1

[15] = tested on: Pseudomonas aeruginosa API 9405063; test: as above; format: cell-based; set-up: key to growth on MH2 Agar medium + 1.5 mg/l Ci / growth on Impregnation of porous support with MH2 + 1.5 mg/l Ci / growth on ChromID CPS3 Agar medium + 1.5 mg/l Ci / growth on Impregnation of porous support with ChromID CPS3 + 1.5 mg/l Ci: ++: grow; −−: do not grow
Procedure: as §1

[16] = tested on: Pseudomonas aeruginosa API 9410075; test: as above; format: cell-based; set-up: key to growth on MH2 Agar medium + 1.5 mg/l Ci / growth on Impregnation of porous support with MH2 + 1.5 mg/l Ci / growth on ChromID CPS3 Agar medium + 1.5 mg/l Ci / growth on Impregnation of porous support with ChromID CPS3 + 1.5 mg/l Ci: ++: grow; −−: do not grow
Procedure: as §1

E. coli ATCC 25922 [17] = test: MIC of imipenem for the strain used; format: cell-based; settings: Escherichia coli, ATCC25922, as stated in the conclusion
[18] = tested on: Pseudomonas aeruginosa ATCC 27853; test: MIC of imipenem for the strain used; format: cell-based; settings: ATCC27853, Pseudomonas aeruginosa ATCC 27853, as stated in the conclusion
E. coli ATCC 25922 [19] = test: Growth (colony count) on ChromID CPS3 with 1 mg/l imipenem, agar medium or impregnated porous support; format: cell-based, Escherichia coli
Procedure: (§2) To produce the agar media, a liter of water is added to the test specimen of the dry medium, i.e. 38.3 g for ChromID CPS3. The dry medium is then dissolved with stirring, brought to the boil then sterilized by autoclaving. After cooling the agar medium to 55° C., the imipenem sterilized by filtration is added at a concentration of 1 mg/l. To carry out impregnation according to the present invention of the dry medium Chrom ID CPS3, a test specimen of the dry medium corresponding to the manufacture of one liter of medium is taken, i.e. 26 g, to which test specimen xanthan (20 g) and imipenem […] are added. All the constituents are then mixed together in a Turbula®. The porous supports are then impregnated by the culture media powder produced as described above and sterilized by gamma radiation between 10 and 17 kGy.

[20] = tested on: Pseudomonas aeruginosa ATCC 27853; test: as above; format: cell-based; settings: for CFU/ml, ChromID CPS3 with 1 mg/l imipenem: starting concentration 10^3 CFU/ml; for CFU, ChromID CPS3 with 1 mg/l imipenem: starting concentration 10^5 CFU/ml
Procedure: as §2

[21] = ChromID CPS3 agar medium, 1.5 mg/l ciprofloxacin
[22] = MH2 agar medium, 1.5 mg/l ciprofloxacin
[23] = MH2 and ChromID CPS3, agar and porous support, 1.5 mg/l ciprofloxacin
[24] = porous support impregnated with ChromID CPS3, 1.5 mg/l ciprofloxacin
[25] = porous support impregnated with MH2, 1.5 mg/l ciprofloxacin
[26] = all the agar or impregnated media, ciprofloxacin 1.5 g/1 [sic]
[27] = porous support according to the invention

O=C(O)c1cn(C2CC2)c2cc(N3CCNCC3)c(F)cc2c1=O [ciprofloxacin, Ciprofloxacin]
MIC [1]: less than 1.5 mg/l
MIC ([1]; listed as Ci): 0.032 mg/L
MIC [2]: 0.38 to 0.5 mg/L
MIC [3]: 8 to 12 mg/L
MIC [4]: < 1.5 µg/mL
MIC [5]: less than 1.5 mg/l
MIC ([5]; listed as Ci): 0.25 mg/L
MIC [6]: 0.25 mg/L
MIC [7]: >32 mg/L
MIC [8]: 6 to 8 mg/L
growth on ChromID CPS3 Agar medium + 1.5 mg/l Ci [9, 21]: −−
growth on MH2 Agar medium + 1.5 mg/l Ci [9, 22]: −−
growth on agar media and impregnated porous supports with ciprofloxacin (in words) [9, 23]: do not grow
growth on Impregnation of porous support with ChromID CPS3 + 1.5 mg/l Ci [9, 24]: −−
growth on Impregnation of porous support with MH2 + 1.5 mg/l Ci [9, 25]: −−
growth on ChromID CPS3 Agar medium + 1.5 mg/l Ci [10, 21]: −−
growth on MH2 Agar medium + 1.5 mg/l Ci [10, 22]: −−
growth on agar media and impregnated porous supports with ciprofloxacin (in words) [10, 23]: do not grow
growth on Impregnation of porous support with ChromID CPS3 + 1.5 mg/l Ci [10, 24]: −−
growth on Impregnation of porous support with MH2 + 1.5 mg/l Ci [10, 25]: −−
growth on ChromID CPS3 Agar medium + 1.5 mg/l Ci [11, 21]: ++
growth on MH2 Agar medium + 1.5 mg/l Ci [11, 22]: ++
growth on agar media and impregnated porous supports with ciprofloxacin (in words) [11, 26]: grow
growth on Impregnation of porous support with ChromID CPS3 + 1.5 mg/l Ci [11, 24]: ++
growth on Impregnation of porous support with MH2 + 1.5 mg/l Ci [11, 25]: ++
growth on ChromID CPS3 Agar medium + 1.5 mg/l Ci [12, 21]: −−
growth on MH2 Agar medium + 1.5 mg/l Ci [12, 22]: −−
growth on agar media and impregnated porous supports with ciprofloxacin (in words) [12, 23]: do not grow
growth on Impregnation of porous support with ChromID CPS3 + 1.5 mg/l Ci [12, 24]: −−
growth on Impregnation of porous support with MH2 + 1.5 mg/l Ci [12, 25]: −−
growth on ChromID CPS3 Agar medium + 1.5 mg/l Ci [13, 21]: −−
growth on MH2 Agar medium + 1.5 mg/l Ci [13, 22]: −−
growth on agar media and impregnated porous supports with ciprofloxacin (in words) [13, 23]: do not grow
growth on Impregnation of porous support with ChromID CPS3 + 1.5 mg/l Ci [13, 24]: −−
growth on Impregnation of porous support with MH2 + 1.5 mg/l Ci [13, 25]: −−
growth on ChromID CPS3 Agar medium + 1.5 mg/l Ci [14, 21]: −−
growth on MH2 Agar medium + 1.5 mg/l Ci [14, 22]: −−
growth on agar media and impregnated porous supports with ciprofloxacin (in words) [14, 23]: do not grow
growth on Impregnation of porous support with ChromID CPS3 + 1.5 mg/l Ci [14, 24]: −−
growth on Impregnation of porous support with MH2 + 1.5 mg/l Ci [14, 25]: −−
growth on ChromID CPS3 Agar medium + 1.5 mg/l Ci [15, 21]: ++
growth on MH2 Agar medium + 1.5 mg/l Ci [15, 22]: ++
growth on agar media and impregnated porous supports with ciprofloxacin (in words) [15, 26]: grow
growth on Impregnation of porous support with ChromID CPS3 + 1.5 mg/l Ci [15, 24]: ++
growth on Impregnation of porous support with MH2 + 1.5 mg/l Ci [15, 25]: ++
growth on ChromID CPS3 Agar medium + 1.5 mg/l Ci [16, 21]: ++
growth on MH2 Agar medium + 1.5 mg/l Ci [16, 22]: ++
growth on agar media and impregnated porous supports with ciprofloxacin (in words) [16, 26]: grow
growth on Impregnation of porous support with ChromID CPS3 + 1.5 mg/l Ci [16, 24]: ++
growth on Impregnation of porous support with MH2 + 1.5 mg/l Ci [16, 25]: ++

C[C@@H](O)[C@H]1C(=O)N2C(C(=O)O)=C(SCCN=CN)C[C@H]12 [imipenem]
MIC (E. coli ATCC 25922 [17]): 0.12 µg/mL
MIC [18]: 2 µg/mL
CFU/ml, ChromID CPS3 with 1 mg/l imipenem (E. coli ATCC 25922 [19]; ChromID CPS3 agar, starting concentration 10^3 CFU/ml): 0 CFU/ml
CFU/ml, ChromID CPS3 with 1 mg/l imipenem (E. coli ATCC 25922 [19]; ChromID CPS3 agar, starting concentration 10^5 CFU/ml): 0 CFU/ml
CFU/ml, ChromID CPS3 with 1 mg/l imipenem (E. coli ATCC 25922 [19]; porous support according to the invention, starting concentration 10^3 CFU/ml): 0 CFU/ml
CFU/ml, ChromID CPS3 with 1 mg/l imipenem (E. coli ATCC 25922 [19]; porous support according to the invention, starting concentration 10^5 CFU/ml): 0 CFU/ml
CFU/ml, ChromID CPS3 with 1 mg/l imipenem ([20]; ChromID CPS3 agar): 677 CFU/ml
CFU, ChromID CPS3 with 1 mg/l imipenem ([20]; ChromID CPS3 agar): ≥300 colonies
CFU/ml, ChromID CPS3 with 1 mg/l imipenem [20, 27]: 453 CFU/ml
CFU, ChromID CPS3 with 1 mg/l imipenem [20, 27]: ≥300 colonies
